Earlier results on 6 compounds are cited in patent US20070173447A1, “METHOD FOR TREATING OSTEOPOROSIS BY INTRANASAL DELIVERY OF TERIPARATIDE WITH AN ANTI-RESORPTIVE AGENT” (Nastech Pharmaceutical Company Inc., priority 2005, published 2007).

Read-outs that look alike come from different tables or passages of the source. Ends that are not written are not given here.

The conditions of data set [1]: anesthetized rats.
The conditions of data set [2]: intranasal, up to 500 μg per day for 7 days and up to 1,000 μg per day for 3 months.
For data set [3] the following is noted: after feeding to rats.
The conditions of data set [4]: rats, intraduodenal, with 1% (w/v) saline dispersion of polycarbophil.

Take human growth hormone: the nasal bioavailability in data set [1] (with N-acetyl-L-cysteine) is 12.2%; in data set [1] (without N-acetyl-L-cysteine), 7.5%.

For “2-alkyl-4-hydroxyquinolines [pyo compound]”, in the data set with ciliary motility, the “concentration producing ciliostasis / inhibiting ciliary motility” value was 50 µg/mL. With “hPTH1-31NH2 (SVSEIQLMHNLGKHLNSMERVEWLRKKLQDV-NH2; listed as Homo sapiens)”, in the data set on ovariectomized rat model, the “restoration of bone loss” value is “fully active”. `CC[C@H](C)[C@H](NC(=O)[C@H](CCC(=O)O)NC(=O)[C@H](CO)NC(=O)[C@@H](NC(=O)[C@@H](N)CO)C(C)C)C(=O)N[C@@H](CCC(N)=O)C(=O)N[C@@H](CC(C)C)C(=O)N[C@@H](CCSC)C(=O)N[C@@H](Cc1cnc[nH]1)C(=O)N[C@@H](CC(N)=O)C(=O)N[C@@H](CC(C)C)C(=O)NCC(=O)N[C@@H](CCCCN)C(=O)N[C@@H](Cc1cnc[nH]1)C(=O)N[C@@H](CC(C)C)C(=O)N[C@@H](CC(N)=O)C(=O)N[C@@H](CO)C(=O)N[C@@H](CCSC)C(=O)N[C@@H](CCC(=O)O)C(=O)N[C@@H](CCCN=C(N)N)C(=O)N[C@H](C(=O)N[C@@H](CCC(=O)O)C(=O)N[C@@H](Cc1c[nH]c2ccccc12)C(=O)N[C@@H](CC(C)C)C(=O)N[C@@H](CCCN=C(N)N)C(=O)N[C@@H](CCCCN)C(=O)N[C@@H](CCCCN)C(=O)N[C@@H](CC(C)C)C(=O)N[C@@H](CCC(N)=O)C(=O)N[C@@H](CC(=O)O)C(=O)N[C@H](C(=O)N[C@@H](Cc1cnc[nH]1)C(=O)N[C@@H](CC(N)=O)C(=O)N[C@@H](Cc1ccccc1)C(=O)O)C(C)C)C(C)C` [Teriparatide, teriparatide]: the safety concerns entry in data set [2] is reported as “No safety concerns were noted”. In the case of Phaseolus vulgaris hemagglutinin, the oral bioavailability result in data set [3] is listed as “more than 10%”.

Turning to “9-desglycinamide, 8-arginine vasopressin [DGAVP]”, the “bioavailability increase compared to aqueous solution without polymer” value in data set [4] is given as 3-5 fold.
